Our source for the inhibition values is ChEMBL document CHEMBL4256947, “Treatment of pancreatic and related cancers with 5-acyl-6,7-dihydrothieno[3,2-c]pyridines” (2016).

A value given as a limit tells only on which side of the number the result lay.

For the test, the target named is Protein-cysteine N-palmitoyltransferase HHAT (Homo sapiens) (UniProt Q5VTY9). The test is described as follows: Inhibition of HA/FLAG/His-tagged Hhat (unknown origin) expressed in human 293T cells at 25 uM using biotinylated Shh peptide as substrate pretreated for 20 mins followed by [125I]-iodo-palitoylCoA/substrate addition measured after 1 hr by gamma counting method relative to control.
Sequence of Protein-cysteine N-palmitoyltransferase HHAT (Homo sapiens) (Q5VTY9 whole entry): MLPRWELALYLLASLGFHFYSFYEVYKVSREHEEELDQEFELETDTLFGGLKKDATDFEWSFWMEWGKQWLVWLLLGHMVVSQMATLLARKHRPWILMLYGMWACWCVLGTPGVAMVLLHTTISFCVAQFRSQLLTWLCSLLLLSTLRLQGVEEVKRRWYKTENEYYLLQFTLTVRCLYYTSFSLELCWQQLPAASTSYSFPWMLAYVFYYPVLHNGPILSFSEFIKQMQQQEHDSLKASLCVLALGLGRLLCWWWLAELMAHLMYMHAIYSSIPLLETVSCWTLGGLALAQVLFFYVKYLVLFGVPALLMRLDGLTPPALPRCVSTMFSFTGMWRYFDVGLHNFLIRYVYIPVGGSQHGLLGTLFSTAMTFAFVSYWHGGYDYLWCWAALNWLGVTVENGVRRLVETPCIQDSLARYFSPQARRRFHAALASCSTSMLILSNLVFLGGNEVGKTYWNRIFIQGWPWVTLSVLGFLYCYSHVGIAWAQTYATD

A word on the inhibition: it is the share of the control response that was lost under treatment. Consider `CCC(C)CNCC(=O)N1CCc2sccc2C1c1cccc(C)c1` (configuration not stated), for which the inhibition is greater than 75%. Turning to `CCC(C)CNCC(=O)N1CCc2sccc2C1c1cccc(C)n1` (configuration not stated), the inhibition is greater than 75%.
